A short description of this assay: Cytotoxicity against mouse EAC cells. As to conditions: Ehrlich, read-out: ED50 (the source's name). In kind it is functional.

In brackets after ≈: the same amount, converted by molar mass.

As to `COn1c(Br)c2c3c(cccc31)[C@H]1C[C@@H](C)CN(C)[C@@H]1C2` [PIBOCIN B], the EC50 came to 25 µg/mL (≈ 71.6 µM).

The record behind these values is ChEMBL document CHEMBL1156393, “Pibocin B, the first N-O-methylindole marine alkaloid, a metabolite from the Far-Eastern ascidian Eudistoma species” (2001).
